{"source": "patent US8802597B2", "about": "“Herbicidal pyrimidines” (E I du Pont de Nemours and Company, priority 2003, dated 2014)", "experiment_in_all_cases": "Test C pre/postemergence", "assay_type_in_all_cases": "in vivo", "key": {"[1]": {"system": "cocklebur (Xanthium strumarium)", "conditions": "Xanthium strumarium, post-emergence, Postemergence", "excerpt": "(§1) Seeds or nutlets of plant species selected from bermudagrass (Cynodon dactylon), Surinam grass (Brachiaria decumbens), cocklebur (Xanthium strumarium), corn (Zea mays), crabgrass (Digitaria sanguinalis), woolly cupgrass (Eriochloa villosa), giant foxtail (Setaria faberii), goosegrass (Eleusine indica), johnsongrass (Sorghum halepense), kochia (Kochia scoparia), lambsquarters (Chenopodium album), morningglory (Ipomoea coccinea), eastern black nightshade (Solanum ptycanthum), yellow nutsedge (Cyperus esculentus), pigweed (Amaranthus retroflexus), common ragweed (Ambrosia elatior), soybean (Glycine max), common (oilseed) sunflower (Helianthus annuus), and velvetleaf (Abutilon theophrasti) were planted and treated preemergence with test chemicals formulated in a non-phytotoxic solvent mixture which included a surfactant.\n(§2) At the same time, plants selected from these crop and weed species and also winter barley (Hordeum vulgare), blackgrass (Alopecurus myosuroides), canarygrass (Phalaris minor), chickweed (Stellaria media), downy brome (Bromus tectorum), green foxtail (Setaria viridis), Italian ryegrass (Lolium multiflorum), wheat (Triticum aestivum), wild oat (Avena fatua) and windgrass (Apera spica-venti) were treated with postemergence applications of some of the test chemicals formulated in the same manner. Plants ranged in height from 2 to 18 cm (1- to 4-leaf stage) for postemergence treatments. Plant species in the flooded paddy test consisted of rice (Oryza sativa), umbrella sedge (Cyperus difformis), duck salad (Heteranthera limosa) and barnyardgrass (Echinochloa crus-galli) grown to the 2-leaf stage for testing. Treated plants and controls were maintained in a greenhouse for 12 to 14 days, after which time all species were compared to controls and visually evaluated. Plant response ratings, summarized in Table C, are based on a scale of 0 to 100 where 0 is no effect and 100 is complete control. A dash (-) response means no test result."}, "[2]": {"system": "crabgrass (Digitaria sanguinalis)", "conditions": "Digitaria sanguinalis, post-emergence, Postemergence", "excerpt": "as §1, §2"}, "kochia (Kochia scoparia)": {"system": "kochia (Kochia scoparia)", "conditions": "Bassia scoparia, post-emergence, Postemergence", "excerpt": "as §1, §2"}, "[3]": {"system": "giant foxtail (Setaria faberii)", "conditions": "Setaria faberi, post-emergence, Postemergence", "excerpt": "as §1, §2"}, "[4]": {"system": "morningglory (Ipomoea coccinea)", "conditions": "Ipomoea, post-emergence, Postemergence", "excerpt": "as §1, §2"}, "[5]": {"system": "lambsquarters (Chenopodium album)", "conditions": "Chenopodium album, post-emergence, Postemergence", "excerpt": "as §1, §2"}, "[6]": {"system": "johnsongrass (Sorghum halepense)", "conditions": "Sorghum halepense, post-emergence, Postemergence", "excerpt": "as §1, §2"}, "corn (Zea mays)": {"system": "corn (Zea mays)", "conditions": "Zea mays, post-emergence, Postemergence", "excerpt": "as §1, §2"}, "[7]": {"system": "Surinam grass (Brachiaria decumbens)", "conditions": "Urochloa decumbens, post-emergence, Postemergence", "excerpt": "as §1, §2"}, "soybean (Glycine max)": {"system": "soybean (Glycine max)", "conditions": "Glycine max, post-emergence, Postemergence", "excerpt": "as §1, §2"}}}
{"smiles": "CCOC(=O)c1nc(C2CC2)nc(NN)c1Br", "note": "[Compound 42]", "values": [{"measurement": "pest or weed control at 31 g/ha", "setting": "[1]; 31 g ai/ha, read-out: Plant response rating (scale of 0 to 100), Cocklebur", "value": 0, "unit": "%"}, {"measurement": "pest or weed control at 62 g/ha", "setting": "[1]; 62 g ai/ha, scale 0 to 100 (0 no effect, 100 complete control), read-out: Cocklebur plant response rating", "value": 0, "unit": "%"}, {"measurement": "pest or weed control at 125 g/ha", "setting": "[1]; 125 g ai/ha, scale 0 to 100 (0 no effect, 100 complete control), read-out: Cocklebur plant response rating", "value": 5, "unit": "%"}, {"measurement": "pest or weed control at 250 g/ha", "setting": "[1]; 250 g ai/ha, scale 0 to 100, read-out: Plant response rating, Cocklebur", "value": 20, "unit": "%"}, {"measurement": "pest or weed control at 31 g/ha", "setting": "[2]; 31 g ai/ha, read-out: Plant response rating (scale of 0 to 100), Crabgrass", "value": 0, "unit": "%"}, {"measurement": "pest or weed control at 62 g/ha", "setting": "[2]; 62 g ai/ha, scale 0 to 100 (0 no effect, 100 complete control), read-out: Crabgrass plant response rating", "value": 0, "unit": "%"}, {"measurement": "pest or weed control at 125 g/ha", "setting": "[2]; 125 g ai/ha, scale 0 to 100 (0 no effect, 100 complete control), read-out: Crabgrass plant response rating", "value": 0, "unit": "%"}, {"measurement": "pest or weed control at 250 g/ha", "setting": "[2]; 250 g ai/ha, scale 0 to 100, read-out: Plant response rating, Crabgrass", "value": 0, "unit": "%"}, {"measurement": "pest or weed control at 31 g/ha", "setting": "kochia (Kochia scoparia); 31 g ai/ha, read-out: Plant response rating (scale of 0 to 100), Kochia", "value": 5, "unit": "%"}, {"measurement": "pest or weed control at 62 g/ha", "setting": "kochia (Kochia scoparia); 62 g ai/ha, scale 0 to 100 (0 no effect, 100 complete control), read-out: Kochia plant response rating", "value": 30, "unit": "%"}, {"measurement": "pest or weed control at 125 g/ha", "setting": "kochia (Kochia scoparia); 125 g ai/ha, scale 0 to 100 (0 no effect, 100 complete control), read-out: Kochia plant response rating", "value": 50, "unit": "%"}, {"measurement": "pest or weed control at 250 g/ha", "setting": "kochia (Kochia scoparia); 250 g ai/ha, scale 0 to 100, read-out: Plant response rating, Kochia", "value": 85, "unit": "%"}, {"measurement": "pest or weed control at 125 g/ha", "setting": "[3]; 125 g ai/ha, scale 0 to 100 (0 no effect, 100 complete control), read-out: Foxtail, Giant plant response rating", "value": 0, "unit": "%"}, {"measurement": "pest or weed control at 31 g/ha", "setting": "[3]; 31 g ai/ha, read-out: Plant response rating (scale of 0 to 100), Foxtail, Giant", "value": 0, "unit": "%"}, {"measurement": "pest or weed control at 62 g/ha", "setting": "[3]; 62 g ai/ha, scale 0 to 100 (0 no effect, 100 complete control), read-out: Foxtail, Giant plant response rating", "value": 0, "unit": "%"}, {"measurement": "pest or weed control at 250 g/ha", "setting": "[3]; 250 g ai/ha, scale 0 to 100, read-out: Plant response rating, Foxtail, Giant", "value": 0, "unit": "%"}, {"measurement": "pest or weed control at 31 g/ha", "setting": "[4]; 31 g ai/ha, read-out: Plant response rating (scale of 0 to 100), Morningglory", "value": 0, "unit": "%"}, {"measurement": "pest or weed control at 62 g/ha", "setting": "[4]; 62 g ai/ha, scale 0 to 100 (0 no effect, 100 complete control), read-out: Morningglory plant response rating", "value": 50, "unit": "%"}, {"measurement": "pest or weed control at 125 g/ha", "setting": "[4]; 125 g ai/ha, scale 0 to 100 (0 no effect, 100 complete control), read-out: Morningglory plant response rating", "value": 80, "unit": "%"}, {"measurement": "pest or weed control at 250 g/ha", "setting": "[4]; 250 g ai/ha, scale 0 to 100, read-out: Plant response rating, Morningglory", "value": 85, "unit": "%"}, {"measurement": "pest or weed control at 31 g/ha", "setting": "[5]; 31 g ai/ha, read-out: Plant response rating (scale of 0 to 100), Lambsquarters", "value": 10, "unit": "%"}, {"measurement": "pest or weed control at 62 g/ha", "setting": "[5]; 62 g ai/ha, scale 0 to 100 (0 no effect, 100 complete control), read-out: Lambsquarters plant response rating", "value": 20, "unit": "%"}, {"measurement": "pest or weed control at 125 g/ha", "setting": "[5]; 125 g ai/ha, scale 0 to 100 (0 no effect, 100 complete control), read-out: Lambsquarters plant response rating", "value": 20, "unit": "%"}, {"measurement": "pest or weed control at 250 g/ha", "setting": "[5]; 250 g ai/ha, scale 0 to 100, read-out: Plant response rating, Lambsquarters", "value": 25, "unit": "%"}, {"measurement": "pest or weed control at 31 g/ha", "setting": "[6]; 31 g ai/ha, read-out: Plant response rating (scale of 0 to 100), Johnsongrass", "value": 0, "unit": "%"}, {"measurement": "pest or weed control at 62 g/ha", "setting": "[6]; 62 g ai/ha, scale 0 to 100 (0 no effect, 100 complete control), read-out: Johnsongrass plant response rating", "value": 0, "unit": "%"}, {"measurement": "pest or weed control at 125 g/ha", "setting": "[6]; 125 g ai/ha, scale 0 to 100 (0 no effect, 100 complete control), read-out: Johnsongrass plant response rating", "value": 0, "unit": "%"}, {"measurement": "pest or weed control at 250 g/ha", "setting": "[6]; 250 g ai/ha, scale 0 to 100, read-out: Plant response rating, Johnsongrass", "value": 10, "unit": "%"}, {"measurement": "Corn plant response rating (crop injury, 0 = no effect, 100 = complete kill) at 31 g/ha", "setting": "corn (Zea mays); 31 g ai/ha, read-out: Plant response rating (scale of 0 to 100), Corn", "value": 0, "unit": "%"}, {"measurement": "Corn plant response rating (crop injury, 0 = no effect, 100 = complete kill) at 62 g/ha", "setting": "corn (Zea mays); 62 g ai/ha, scale 0 to 100 (0 no effect, 100 complete control), read-out: Corn plant response rating", "value": 0, "unit": "%"}, {"measurement": "Corn plant response rating (crop injury, 0 = no effect, 100 = complete kill) at 125 g/ha", "setting": "corn (Zea mays); 125 g ai/ha, scale 0 to 100 (0 no effect, 100 complete control), read-out: Corn plant response rating", "value": 0, "unit": "%"}, {"measurement": "Corn plant response rating (crop injury, 0 = no effect, 100 = complete kill) at 250 g/ha", "setting": "corn (Zea mays); 250 g ai/ha, scale 0 to 100", "value": 0, "unit": "%"}, {"measurement": "pest or weed control at 125 g/ha", "setting": "[7]; 125 g ai/ha, scale 0 to 100 (0 no effect, 100 complete control), read-out: Surinam Grass plant response rating", "value": 0, "unit": "%"}, {"measurement": "pest or weed control at 31 g/ha", "setting": "[7]; 31 g ai/ha, read-out: Plant response rating (scale of 0 to 100), Surinam Grass", "value": 0, "unit": "%"}, {"measurement": "pest or weed control at 62 g/ha", "setting": "[7]; 62 g ai/ha, scale 0 to 100 (0 no effect, 100 complete control), read-out: Surinam Grass plant response rating", "value": 0, "unit": "%"}, {"measurement": "pest or weed control at 250 g/ha", "setting": "[7]; 250 g ai/ha, scale 0 to 100, read-out: Plant response rating, Surinam Grass", "value": 0, "unit": "%"}, {"measurement": "plant injury at 31 g/ha", "setting": "soybean (Glycine max); 31 g ai/ha, read-out: Plant response rating (scale of 0 to 100), Soybean", "value": 10, "unit": "%"}, {"measurement": "plant injury at 62 g/ha", "setting": "soybean (Glycine max); 62 g ai/ha, scale 0 to 100 (0 no effect, 100 complete control), read-out: Soybean plant response rating", "value": 30, "unit": "%"}, {"measurement": "plant injury at 125 g/ha", "setting": "soybean (Glycine max); 125 g ai/ha, scale 0 to 100 (0 no effect, 100 complete control), read-out: Soybean plant response rating", "value": 40, "unit": "%"}, {"measurement": "plant injury at 250 g/ha", "setting": "soybean (Glycine max); 250 g ai/ha, scale 0 to 100, read-out: Plant response rating, Soybean", "value": 70, "unit": "%"}]}
